Source: ChEMBL document CHEMBL3091276, “Design, synthesis and evaluation of 6-(4-((substituted-1H-1,2,3-triazol-4-yl)methyl)piperazin-1-yl)phenanthridine analogues as antimycobacterial agents” (Bioorg Med Chem Lett, 2013)
In brackets after ≈: the same amount, converted by molar mass.

Legend:
[1] = system: Mycobacterium tuberculosis; assay: Antimycobacterial activity in Mycobacterium tuberculosis H37Rv after 5 days by Alamar Blue assay; format: functional; settings: 120 h
[2] = Selectivity index, ratio of IC50 for mouse RAW264.7 cells to MIC99 for Mycobacterium tuberculosis H37Rv; format: toxicity; settings: read-out: Selectivity Index
[3] = system: RAW264.7; assay: Cytotoxicity against mouse RAW264.7 cells by MTT assay; format: cell-based
[4] = Cytotoxicity against mouse RAW264.7 cells at 50 ug/ml by MTT assay relative to control; format: cell-based; settings: read-out: INH

Row | Compound | MIC99 [1] [µg/mL] | selectivity ratio [2] | IC50 [3] [µg/mL] | cytotoxicity at 50 ug/ml [4] [%]
1 | c1ccc(Cn2cc(CN3CCN(c4nc5ccccc5c5ccccc45)CC3)nn2)cc1 | 50 (≈ 115 µM) |  |  | 
2 | CCc1ccc(-n2cc(CN3CCN(c4nc5ccccc5c5ccccc45)CC3)nn2)cc1 | 50 (≈ 111 µM) |  |  | 
3 | Cc1ccc(-n2cc(CN3CCN(c4nc5ccccc5c5ccccc45)CC3)nn2)c(C)c1 | 12.5 (≈ 27.9 µM) |  |  | 
4 | c1ccc2c(c1)nc(N1CCN(Cc3cn(-c4ccc5c(c4)OCO5)nn3)CC1)c1ccccc12 | 50 (≈ 108 µM) |  |  | 
5 | COc1cccc(-n2cc(CN3CCN(c4nc5ccccc5c5ccccc45)CC3)nn2)c1 | 50 (≈ 111 µM) |  |  | 
6 | COc1ccc(-n2cc(CN3CCN(c4nc5ccccc5c5ccccc45)CC3)nn2)cc1 | 3.12 (≈ 6.94 µM) | > 15 | > 125 | 19.2
7 | Clc1ccc(-n2cc(CN3CCN(c4nc5ccccc5c5ccccc45)CC3)nn2)cc1Cl | 50 (≈ 102 µM) |  |  | 
8 | Clc1ccc(-n2cc(CN3CCN(c4nc5ccccc5c5ccccc45)CC3)nn2)cc1 | 25 (≈ 54.9 µM) |  |  | 
9 | Clc1ccccc1-n1cc(CN2CCN(c3nc4ccccc4c4ccccc34)CC2)nn1 | 12.5 (≈ 27.5 µM) |  |  | 
10 | Clc1cccc(-n2cc(CN3CCN(c4nc5ccccc5c5ccccc45)CC3)nn2)c1 | 3.12 (≈ 6.87 µM) | > 20 | > 150 | 12.6
11 | Brc1ccccc1-n1cc(CN2CCN(c3nc4ccccc4c4ccccc34)CC2)nn1 | 50 (≈ 100 µM) |  |  | 
12 | Brc1ccc(-n2cc(CN3CCN(c4nc5ccccc5c5ccccc45)CC3)nn2)cc1 | 12.5 (≈ 25 µM) |  |  | 
13 | Fc1ccc(-n2cc(CN3CCN(c4nc5ccccc5c5ccccc45)CC3)nn2)cc1Cl | 50 (≈ 106 µM) |  |  | 
14 | Fc1ccc(-n2cc(CN3CCN(c4nc5ccccc5c5ccccc45)CC3)nn2)cc1F | 25 (≈ 54.8 µM) |  |  | 
15 | Fc1ccc(-n2cc(CN3CCN(c4nc5ccccc5c5ccccc45)CC3)nn2)cc1 | 25 (≈ 57 µM) |  |  | 
16 | FC(F)(F)c1cccc(-n2cc(CN3CCN(c4nc5ccccc5c5ccccc45)CC3)nn2)c1 | 12.5 (≈ 25.6 µM) |  |  | 
17 | O=[N+]([O-])c1cccc(-n2cc(CN3CCN(c4nc5ccccc5c5ccccc45)CC3)nn2)c1 | 6.25 (≈ 13.4 µM) |  |  | 
18 | O=S(=O)(c1ccccc1)n1cc(CN2CCN(c3nc4ccccc4c4ccccc34)CC2)nn1 | 1.56 (≈ 3.22 µM) | > 125 | > 425 | 5.82
19 | Cc1ccc(S(=O)(=O)n2cc(CN3CCN(c4nc5ccccc5c5ccccc45)CC3)nn2)cc1 | 12.5 (≈ 25.1 µM) |  |  | 
20 | NNC(=O)c1ccncc1 [ISONIAZID] | 0.36 (≈ 2.63 µM) |  |  | 
21 | CO[C@H]1/C=C/O[C@@]2(C)Oc3c(C)c(O)c4c(O)c(c(/C=N/N5CCN(C)CC5)c(O)c4c3C2=O)NC(=O)/C(C)=C\C=C\[C@H](C)[C@H](O)[C@@H](C)[C@@H](O)[C@@H](C)[C@H](OC(C)=O)[C@@H]1C [RIFAMPIN] | 0.02 (≈ 0.0243 µM) |  |  | 
